# System: H4-Arg 3 methylation in HeLa cells
# Assay: TSA treatment of HeLa cells, methylation state of H4-Arg 3 in isolated core histones
# Format: cell-based, human
# Settings: twelve hours after TSA treatment, hyperacetylated H4
# Protocol: To determine whether this inhibition occurs in vivo, HeLa cells were treated with a histone deacetylase inhibitor, Tricostatin A (TSA), to induce hyperacetylation. Twelve hours after TSA treatment, core histones were isolated, and the methylation state of H4-Arg 3 was analyzed. […] Therefore, hyperacetylation on lysine residues correlates with hypomethylation of H4 Arg 3.
smiles,measurement,value
CC(/C=C/C(=O)NO)=C\[C@@H](C)C(=O)c1ccc(N(C)C)cc1 [Tricostatin A],H4 Arg 3 methylation level,almost undetectable
